The source of these data is US10123993B2, “Cyclic ureas as inhibitors of rock” (BRISTOL-MYERS SQUIBB COMPANY, priority 2015, dated 2018).

Structures can show the parent of a compound that is named as a salt.

Sequence of ROCK2 (O75116 whole entry, species assumed): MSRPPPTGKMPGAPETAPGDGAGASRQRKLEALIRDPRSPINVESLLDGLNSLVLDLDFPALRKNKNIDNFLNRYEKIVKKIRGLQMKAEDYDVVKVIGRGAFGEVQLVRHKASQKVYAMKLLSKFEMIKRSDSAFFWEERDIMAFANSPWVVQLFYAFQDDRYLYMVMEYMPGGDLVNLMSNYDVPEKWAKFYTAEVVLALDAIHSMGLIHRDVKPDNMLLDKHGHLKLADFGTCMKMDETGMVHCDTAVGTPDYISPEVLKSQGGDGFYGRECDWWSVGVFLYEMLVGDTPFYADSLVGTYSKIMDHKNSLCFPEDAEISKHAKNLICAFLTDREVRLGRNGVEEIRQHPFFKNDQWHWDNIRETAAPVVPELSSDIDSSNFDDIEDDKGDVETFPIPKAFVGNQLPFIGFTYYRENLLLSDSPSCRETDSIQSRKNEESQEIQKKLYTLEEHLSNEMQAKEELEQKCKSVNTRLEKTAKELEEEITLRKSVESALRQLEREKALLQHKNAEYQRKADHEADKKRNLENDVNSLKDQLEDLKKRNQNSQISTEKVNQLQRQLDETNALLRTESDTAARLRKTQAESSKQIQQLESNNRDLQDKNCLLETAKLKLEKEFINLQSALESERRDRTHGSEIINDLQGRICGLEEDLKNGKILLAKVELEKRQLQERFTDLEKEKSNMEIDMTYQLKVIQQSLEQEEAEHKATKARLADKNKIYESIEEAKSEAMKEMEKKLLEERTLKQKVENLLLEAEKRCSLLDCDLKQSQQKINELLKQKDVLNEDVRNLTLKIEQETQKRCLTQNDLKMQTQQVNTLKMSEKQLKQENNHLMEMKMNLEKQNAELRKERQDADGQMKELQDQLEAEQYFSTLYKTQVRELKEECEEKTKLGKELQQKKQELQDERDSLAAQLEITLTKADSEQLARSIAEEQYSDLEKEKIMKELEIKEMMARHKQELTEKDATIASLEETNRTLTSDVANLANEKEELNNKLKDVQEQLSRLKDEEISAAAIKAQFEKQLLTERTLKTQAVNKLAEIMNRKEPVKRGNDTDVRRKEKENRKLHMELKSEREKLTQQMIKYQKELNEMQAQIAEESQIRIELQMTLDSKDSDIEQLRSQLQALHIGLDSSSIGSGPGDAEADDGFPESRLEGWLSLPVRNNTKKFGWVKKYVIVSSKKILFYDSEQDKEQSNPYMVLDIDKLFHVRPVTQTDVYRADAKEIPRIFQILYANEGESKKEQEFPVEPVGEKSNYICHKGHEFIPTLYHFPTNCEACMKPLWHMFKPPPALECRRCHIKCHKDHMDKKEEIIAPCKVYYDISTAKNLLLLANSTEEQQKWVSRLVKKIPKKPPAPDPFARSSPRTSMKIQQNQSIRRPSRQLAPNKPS

This assay addresses ROCK2 (Homo sapiens, UniProt O75116). As to the kind of experiment: ROCK2 kinase inhibition assay (Caliper LABCHIP, FITC peptide substrate). Conditions: 5 μM ATP, 1.5 μM peptide substrate; value ranges. Format: biochemical. Summed up: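 Rho kinase with 5 μM ATP and 1.5 μM FITC-AHA-AKRRRLSSLRA-OH peptide in HEPES pH 7.5, 20 mM MgCl2, 0.015% Brij-35, 4 mM DTT, DMSO <2%. EDTA stop; phospho and non-phospho peptide separated on LabChip. IC50 from dose-response fit.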
As usually defined, the IC50 is the concentration that inhibits the measured activity by half. For `COc1cccc(C(CO)N2CCN(c3ccc(-c4cn[nH]c4)cc3)C2=O)c1` (single isomer, unassigned) [Example 155, 1-(4-(1H-Pyrazol-4-yl)phenyl)-3-(2-hydroxy-1-(3-methoxyphenyl)ethyl)imidazolidin-2-one], the IC50 was < 2 nM.

`COc1cccc(C(C(N)=O)N2CCN(c3ccc(-c4cn[nH]c4)cc3)C2=O)c1` (single isomer, unassigned) [Example 295, 2-(3-(4-(1H-pyrazol-4-yl)phenyl)-2-oxoimidazolidin-1-yl)-2-(3-methoxyphenyl)acetamide]: the IC50 lay within 20.1 to 200 nM.

With `Cc1nc(N2CCN(C(C)c3cccc(OCC4CC4)c3)C2=O)ccc1-c1cn[nH]c1` (single isomer, unassigned) [Example 204, 1-(1-(3-(cyclopropyl-methoxy)-phenyl)-ethyl)-3-(6-methyl-5-(1H-pyrazol-4-yl)pyridin-2-yl)-imidazolidin-2-one], the IC50 was 20.1 to 200 nM. For `CCc1nc(N2CCN(C(C)c3cccc(OC)c3)C2=O)ccc1-c1cn[nH]c1` (single isomer, unassigned) [Example 173, 1-(6-ethyl-5-(1H-pyrazol-4-yl)pyridin-2-yl)-3-(1-(3-methoxy-phenyl)ethyl) imidazolidin-2-one] the value was < 2 nM; for `CCc1cc(N2CCN(Cc3cccc(OCC4CC4)c3)C2=O)ccc1-c1cn[nH]c1` [Example 285, 1-(3-(cyclopropylmethoxy)benzyl)-3-(3-ethyl-4-(1H-pyrazol-4-yl)phenyl)imidazolidin-2-one], 200 to 2000 nM. As for `COc1nc(N2CCN(CC3CCCCC3)C2=O)ccc1-c1cn[nH]c1` [Example 227, 1-(cyclohexylmethyl)-3-(6-methoxy-5-(1H-pyrazol-4-yl)pyridin-2-yl)imidazolidin-2-one], the IC50 fell in the range of 2.1 to 20 nM. For `CNCC(c1cccc(OC)c1)N1CCN(c2ccc(-c3cn[nH]c3)cc2)C1=O` (single isomer, unassigned) [Example 310, 1-(4-(1H-Pyrazol-4-yl)phenyl)-3-(1-(3-methoxyphenyl)-2-(methylamino)ethyl)imidazolidin-2-one] the value was 2.1 to 20 nM; for `COc1cc(CN2CCN(c3ccc(-c4cn[nH]c4)c(F)c3)C2=O)ccc1F` [Example 434, 1-(4-fluoro-3-methoxybenzyl)-3-(3-fluoro-4-(1H-pyrazol-4-yl)phenyl)imidazolidin-2-one], 2.1 to 20 nM; for `COc1cccc(CN2CCN(c3ccc(-c4cn[nH]c4)c(F)c3)C2=O)c1` [Example 430, 1-(3-fluoro-4-(1H-pyrazol-4-yl)phenyl)-3-(3-methoxybenzyl)imidazolidin-2-one], 2.1 to 20 nM. `O=c1n(CCc2ccccc2F)ccn1-c1ccc(-c2cn[nH]c2)cc1` [Example 330, 1-(4-(1H-pyrazol-4-yl)phenyl)-3-(2-fluorophenethyl)-1H-imidazol-2(3H)-one] registered an IC50 of 20.1 to 200 nM. On to `COc1ccc(F)c(CN2CCN(c3ccc(-c4cn[nH]c4)c(OC)c3)C2=O)c1` [Example 15, 1-(2-Fluoro-5-methoxybenzyl)-3-(3-methoxy-4-(1H-pyrazol-4-yl)phenyl)imidazolidin-2-one], for which the IC50 lay in the range of 20.1 to 200 nM. In turn, `CCC1CN(c2ccc(-c3cn[nH]c3)cc2)C(=O)N1Cc1cccc(OCC2CC2)c1` (centres unmarked) [Example 177, 1-(4-(1H-pyrazol-4-yl)phenyl)-3-(3-(cyclo-propyl-methoxy)-benzyl)-4-ethyl-imidazolidin-2-one] gave an IC50 of 20.1 to 200 nM. The molecule `COc1nc(N2CCN(Cc3cccc(Cl)c3)C2=O)ccc1-c1cn[nH]c1` [Example 256, 1-(3-chlorobenzyl)-3-(6-methoxy-5-(1H-pyrazol-4-yl)pyridin-2-yl)imidazolidin-2-one] had an IC50 of 2.1 to 20 nM.

On to `COc1cccc(CN2CCN(c3ccc(-c4cn[nH]c4)c(C4CC4)c3)C2=O)c1` [Example 468, 1-(3-cyclopropyl-4-(1H-pyrazol-4-yl)phenyl)-3-(3-methoxybenzyl)imidazolidin-2-one], for which the IC50 is 20.1 to 200 nM. `COc1cc(F)cc(CN2CCN(c3ccc(-c4cn[nH]c4)cc3)C2=O)c1` [Example 118, 1-(4-(1H-pyrazol-4-yl)phenyl)-3-(3-fluoro-5-methoxybenzyl)imidazolidin-2-one]: the IC50 is < 2 nM.

Regarding `COc1cccc(Cn2ccn(-c3ccc(-c4cn[nH]c4)c(OC)c3)c2=O)c1` [Example 342, 1-(3-methoxy-4-(1H-pyrazol-4-yl)phenyl)-3-(3-methoxybenzyl)-1H-imidazol-2(3H)-one], the IC50 was < 2 nM.

The molecule `COc1cc(F)cc(CN2C(=O)N(c3ccc(-c4cn[nH]c4)cc3)CC2(C)C)c1` [Example 138, 1-(4-(1H-pyrazol-4-yl)phenyl)-3-(3-fluoro-5-methoxy-benzyl)-4,4-dimethyl-imidazolidin-2-one] yielded an IC50 of 2.1 to 20 nM. Take `COc1nc(-n2ccn(Cc3cccc(F)c3)c2=O)ccc1-c1cn[nH]c1` [Example 413, 1-(3-fluorobenzyl)-3-(6-methoxy-5-(1H-pyrazol-4-yl)pyridin-2-yl)-1H-imidazol-2(3H)-one]: the 50% inhibitory concentration (IC50) is < 2 nM. For `COc1cc(C(C)N2CCN(c3ccc(-c4cn[nH]c4)c(OC)n3)C2=O)ccc1F` (single isomer, unassigned) [Example 230, 1-(1-(4-fluoro-3-methoxyphenyl)ethyl)-3-(6-methoxy-5-(1H-pyrazol-4-yl)pyridin-2-yl)imidazolidin-2-one], the IC50 is < 2 nM. Molecule `COc1ccc(F)c(CN2CCN(c3ccc(-c4cn[nH]c4)cc3)C2=O)c1` [Example 120, 1-(4-(1H-pyrazol-4-yl)phenyl)-3-(2-fluoro-5-methoxybenzyl)imidazolidin-2-one] displayed an IC50 of 20.1 to 200 nM. For `COc1cccc(C(C)N2CCN(c3ccc(-c4cn[nH]c4)c(C)c3)C2=O)c1` (single isomer, unassigned) [Example 193, 1-(1-(3-methoxy-phenyl)-ethyl)-3-(3-methyl-4-(1H-pyrazol-4-yl)phenyl) imidazolidin-2-one] the value was 2.1 to 20 nM. With `COc1cc(F)cc(CN2C(=O)N(c3ccc(-c4cn[nH]c4)cn3)C[C@H]2CO)c1` [Example 312, (S)-1-(5-(1H-pyrazol-4-yl)pyridin-2-yl)-3-(3-fluoro-5-methoxybenzyl)-4-(hydroxymethyl)imidazolidin-2-one], the IC50 was in the range of 2.1 to 20 nM. Consider `COc1cc(F)cc(C(C)n2ccn(-c3ccc(-c4cn[nH]c4)cc3)c2=O)c1` (single isomer, unassigned) [Example 366, 1-(4-(1H-pyrazol-4-yl)phenyl)-3-(1-(3-fluoro-5-methoxyphenyl)ethyl)-1H-imidazol-2(3H)-one], for which the IC50 is < 2 nM. `COc1cc(F)cc(Cn2ccn(-c3ccc(-c4cn[nH]c4)cn3)c2=O)c1` [Example 345, 1-(5-(1H-pyrazol-4-yl)pyridin-2-yl)-3-(3-fluoro-5-methoxybenzyl)-1H-imidazol-2(3H)-one] had an IC50 of 2.1 to 20 nM. Regarding `Cc1ccc(F)cc1Cn1ccn(-c2ccc(-c3cn[nH]c3)cc2)c1=O` [Example 404, 1-(4-(1H-pyrazol-4-yl)phenyl)-3-(5-fluoro-2-methylbenzyl)-1H-imidazol-2(3H)-one], the IC50 is 20.1 to 200 nM. For `COc1nc(N2CCN(Cc3noc(C)n3)C2=O)ccc1-c1cn[nH]c1` [Example 255, 1-((6-methoxy-5-(1H-pyrazol-4-yl)pyridin-2-yl)-3-(5-methyl-1,2,4-oxadiazol-3-yl)methyl)imidazolidin-2-one] the value was 200 to 2000 nM. `COc1nc(N2CCN(C(C)c3cccc(OCC4CC4)c3)C2=O)ccc1-c1cn[nH]c1` (single isomer, unassigned) [Example 213, 1-(1-(3-(cyclopropylmethoxy)phenyl)ethyl)-3-(6-methoxy-5-(1H-pyrazol-4-yl)pyridin-2-yl)imidazolidin-2-one] had an IC50 of 200 to 2000 nM. Turning to `COc1nc(N2CCN(CC3CCCO3)C2=O)ccc1-c1cn[nH]c1` (centres unmarked) [Example 254, 1-(6-methoxy-5-(1H-pyrazol-4-yl)pyridin-2-yl)-3-((tetrahydrofuran-2-yl)methyl)imidazolidin-2-one], the IC50 lay in the range of 20.1 to 200 nM. For `COc1nc(N2CCN(Cc3ccccc3F)C2=O)ccc1-c1cn[nH]c1` [Example 244, 1-(2-fluorobenzyl)-3-(6-methoxy-5-(1H-pyrazol-4-yl)pyridin-2-yl)imidazolidin-2-one] the value was 2.1 to 20 nM; for `COc1nc(-n2ccn(Cc3cccc(F)c3C)c2=O)ccc1-c1cn[nH]c1` [Example 380, 1-(3-fluoro-2-methylbenzyl)-3-(6-methoxy-5-(1H-pyrazol-4-yl)pyridin-2-yl)-1H-imidazol-2(3H)-one], < 2 nM; for `CC(c1ccccc1)n1ccn(-c2ccc(-c3cn[nH]c3)cc2)c1=O` (single isomer, unassigned; (+)) [Example 72, (+)-1-(4-(1H-pyrazol-4-yl)phenyl)-3-(1-phenylethyl)-1H-imidazol-2(3H)-one], 2.1 to 20 nM. As to `O=C1N(Cc2ccccc2F)CCN1c1ccc(-c2ccncc2)cc1` [Example 57, 1-(2-fluorobenzyl)-3-(4-(pyridin-4-yl)phenyl)imidazolidin-2-one, TFA], the IC50 fell in the range of 200 to 2000 nM. `COc1cc(N2CCN(Cc3c(F)cccc3F)C2=O)ccc1-c1cn[nH]c1` [Example 16, 1-(2,6-Difluorobenzyl)-3-(3-methoxy-4-(1H-pyrazol-4-yl)phenyl)imidazolidin-2-one] yielded an IC50 of 20.1 to 200 nM.

In turn, `COc1cc(N2C(=O)CN(Cc3ccccc3F)C2=O)ccc1-c1cn[nH]c1` [Example 91, 1-(2-fluorobenzyl)-3-(3-methoxy-4-(1H-pyrazol-4-yl)phenyl)imidazolidine-2,4-dione, TFA] returned an IC50 of 200 to 2000 nM. The molecule `COc1cc(N2C(=O)CN(Cc3cc(F)ccc3F)C2=O)ccc1-c1cn[nH]c1` [Example 92, 1-(2,5-difluorobenzyl)-3-(3-methoxy-4-(1H-pyrazol-4-yl)phenyl)imidazolidine-2,4-dione, TFA] yielded an IC50 of 200 to 2000 nM.
